Measured values as given in article PMC10847579, “Recording ten-fold larger IKr conductances with automated patch clamping using equimolar Cs^+ solutions” (Frontiers in Physiology, 2024).

How the values were obtained:
hERG channel [1] = molecular target: T1, hERG channel (Homo sapiens, UniProt Q12809); experiment: Automated patch clamp (Nanion Patchliner) of hERG current in CHO-hERG cells with equimolar Cs+ solutions; type: cell-based
T1 construct: host or cells: CHO cre/lox hERG
Description: (§1) A cell passage was performed twice a week and kept under 20 passages for optimal cell quality. […] Thereafter, the cells were resuspended in 1.7 mL external K^+ solution.
(§2) After sample preparation, experiments on CHO cells were performed at 22°C on the Nanion® Patchliner system (Nanion Technologies, Munich, Germany) with a EPC-10 Quadro Amplifier (HEKA, Reutlingen, Germany) controlled by Patchmaster 2.90.5. Recordings were performed using membrane capacitance and series resistance compensation (70%). The chip (NPC-16 medium resistance, Nanion Technologies) was filled with either the K^+ or Cs^+ internal and external solution with a resistance between 2 and 4 MOhm. Thereafter, the cells were added to the chip. After the capture of a cell, the seal enhancer solution was added, obtaining a Rseal of at least 200 MOhm. Next, the chip was flushed with an external solution. During the experiment, four cells were measured simultaneously in separate chambers of the chip.
(§3) For all experiments, the drugs were incubated for 60 s before measuring and an activation pulse of +20 mV and −80 mV both for 500 m was given to open the channel and achieve the steady-state ion channel–drug interaction.
For Cs^+-based experiments, the cells were depolarized from a holding potential of −80 mV in 10-mV increments between −70 mV and +40 mV for 3 s. Thereafter, the cell was clamped back to −80 mV for 2 s, followed by a hyperpolarization step to −100 mV for 50 ms before returning to −80 mV. In K^+-based experiments, the cells were clamped at a holding potential of −80 mV before a hyperpolarizing step to −120 mV for 10 ms and returned to −80 mV for 50 ms before cells were depolarized from −60 mV to 60 mV in 10-mV increments for 1 s. […]
For all measured currents, the current densities (pA/pF) were determined by normalizing for the membrane capacitance. The current densities were converted to conductance densities (pS/pF) using reversal potentials calculated using the Nernst equation for the solution and temperature used. […]
All averages are expressed as mean ± SEM for the (maximal) conductance values and IC50 values. […]

hERG channel [2] = molecular target: T1, hERG channel; experiment: Automated patch clamp (Nanion Patchliner) of hERG current in CHO-hERG cells with K+ solutions; type: cell-based
Description: as §1, §2, §3
For Cs^+-based experiments, the cells were depolarized from a holding potential of −80 mV in 10-mV increments between −70 mV and +40 mV for 3 s. Thereafter, the cell was clamped back to −80 mV for 2 s, followed by a hyperpolarization step to −100 mV for 50 ms before returning to −80 mV. In K^+-based experiments, the cells were clamped at a holding potential of −80 mV before a hyperpolarizing step to −120 mV for 10 ms and returned to −80 mV for 50 ms before cells were depolarized from −60 mV to 60 mV in 10-mV increments for 1 s. Thereafter, the cells were clamped back to −50 mV for 500 ms and finally returned to −80 mV. The interval between sweeps was 10 s for both protocols.
For the stock solutions, the drugs were dissolved in ddH2O and for the working solution diluted in either the K^+ or Cs^+ external solution. The different concentrations per compound were sequentially tested on the same cell.
For all measured currents, the current densities (pA/pF) were determined by normalizing for the membrane capacitance. The current densities were converted to conductance densities (pS/pF) using reversal potentials calculated using the Nernst equation for the solution and temperature used.
Dose–response curves were made with the tail current values at 40 mV, which were the largest current densities.
All averages are expressed as mean ± SEM for the (maximal) conductance values and IC50 values. To determine the amount of block, a two-way ANOVA with Dunnett’s test was performed with the maximal conductance values. […]

T1 sequence (Q12809 whole entry): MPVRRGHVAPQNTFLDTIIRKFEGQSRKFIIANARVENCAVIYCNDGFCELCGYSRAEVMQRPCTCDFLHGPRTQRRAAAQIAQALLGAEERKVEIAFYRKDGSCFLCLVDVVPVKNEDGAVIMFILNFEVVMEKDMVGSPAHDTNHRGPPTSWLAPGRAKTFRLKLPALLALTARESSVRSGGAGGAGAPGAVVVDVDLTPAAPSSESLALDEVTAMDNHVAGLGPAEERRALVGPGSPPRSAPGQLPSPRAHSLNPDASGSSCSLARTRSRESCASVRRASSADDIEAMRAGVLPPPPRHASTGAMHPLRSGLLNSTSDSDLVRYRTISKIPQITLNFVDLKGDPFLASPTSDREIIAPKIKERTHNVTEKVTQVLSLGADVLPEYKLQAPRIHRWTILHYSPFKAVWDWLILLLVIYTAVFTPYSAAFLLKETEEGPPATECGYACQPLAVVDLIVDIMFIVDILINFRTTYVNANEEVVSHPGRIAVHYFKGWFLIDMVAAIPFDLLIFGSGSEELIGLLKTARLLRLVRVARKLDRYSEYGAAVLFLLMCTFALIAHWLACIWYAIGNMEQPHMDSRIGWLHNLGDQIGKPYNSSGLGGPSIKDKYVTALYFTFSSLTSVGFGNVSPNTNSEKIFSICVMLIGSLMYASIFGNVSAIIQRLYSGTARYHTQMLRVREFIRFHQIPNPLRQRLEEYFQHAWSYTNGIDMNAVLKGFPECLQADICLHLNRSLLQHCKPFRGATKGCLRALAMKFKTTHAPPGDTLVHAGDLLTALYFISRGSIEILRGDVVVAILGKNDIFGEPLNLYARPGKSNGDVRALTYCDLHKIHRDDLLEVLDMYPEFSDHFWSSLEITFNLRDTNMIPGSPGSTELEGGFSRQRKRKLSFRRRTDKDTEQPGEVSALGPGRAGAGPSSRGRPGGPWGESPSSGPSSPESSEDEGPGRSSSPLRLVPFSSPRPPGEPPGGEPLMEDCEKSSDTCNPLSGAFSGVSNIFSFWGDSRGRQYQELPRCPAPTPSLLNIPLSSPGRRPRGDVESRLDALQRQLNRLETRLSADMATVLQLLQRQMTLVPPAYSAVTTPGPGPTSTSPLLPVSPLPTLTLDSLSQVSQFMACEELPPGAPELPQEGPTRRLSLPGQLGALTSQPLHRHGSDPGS

CNCCCN1c2ccccc2CCc2ccccc21 [Desipramine]
effect on Cs+ step conductance (hERG channel [1]; 100 µM (highest)): slightly decreased
effect on Cs+ tail conductance (hERG channel [1]; 100 µM (highest)): strong decrease but not a complete block
Hill coef. (hERG channel [1]; tail current at +40 mV): −1.4
effect on K+ step conductance (hERG channel [2]; K+ solutions, 1 µM): almost completely inhibited
effect on K+ tail conductance (hERG channel [2]; K+ solutions, 100 and 1,000 µM): completely blocked
Hill coef. (hERG channel [2]; K+ solutions, tail current at +40 mV): −1.4
strength of hERG current inhibition (hERG channel [2]; comparison of the drugs, Figure 1 (K+ and Cs+ solutions)): modest inhibition
